Data from patent US20250154165A1, “MULTIANTENNARY GLYCOLIPID MIMETICS” (CONSEJO SUPERIOR DE INVESTIGACIONES CIENTÍFICAS (CSIC), priority 2021, published 2025).

Key:
[1] = tested on: bone marrow-derived macrophages (BMDM) treated with LPS; experiment: Suppression of LPS-induced inflammation in bone marrow-derived macrophages (BMDM in vitro); format: cell-based; details: LPS-induced, BMDM (FIG. 2)
Text: Since macrophage is the major responder to LPS-induced inflammation, we assessed the capability of selected compounds to suppress LPS-induced inflammation in bone marrow-derived macrophages (BMDM).

[2] = tested on: Splenocytes; experiment: Immune-stimulating function of compounds alone (splenocytes in vitro); format: cell-based, mouse; details: for Th1/Th2 bias: concluded from IFNγ and IL-4 secretion of splenocytes (FIG. 6); for IFNγ secretion / IL-4 secretion: splenocytes treated with compound alone (FIG. 6)
Procedure: FIG. 6. […] Splenocytes were treated with the compounds of the invention alone to assess the immune-stimulating function of the compounds. Compounds 12, 18, 22, 27, and 29 induced significant IFNγ secretion, and compound 8 induced significant IL-4 secretion.
(§1) The whole spleen was surgically removed from a mouse and mechanically dissociated into a single cell suspension of splenocytes, which were then cultured in the complete RPMI 1640 medium (cRPMI). Human peripheral blood mononuclear cells (PBMCs) from healthy volunteers were collected from whole blood through gradient-centrifugation with Histopaque-1077 (Sigma-Aldrich).
Splenocytes were treated with the compounds of the invention alone to assess the immune-stimulating function of the compounds by measuring their ability to promote the secretions of IFN-γ and IL-4.

[3] = tested on: OVA-induced AHR mouse model; experiment: Suppression of OVA-induced airway inflammation in vivo (IL-13 and IL-4 in BALF and lungs); details: OVA-induced AHR experiment; for IL-4 level in BALF / IL-13 level in BALF: bronchoalveolar lavage fluid (FIG. 8); for IL-4 protein level in lungs / IL-13 protein level in lungs: lung protein (FIG. 9)
Procedure: FIG. 8. […] The bronchoalveolar lavage fluid (BALF) from mice in the OAV-induced AHR experiment was examined forth IL-13 and IL-4 levels.
FIG. 9. […] The lungs from mice in the OAV-induced AHR experiment was examined for their IL-13 and IL-4 protein level.
FIG. 10. […] The lungs from mice in the OAV-induced AHR experiment was examined for their IL-13 and IL-4 mRNA levels.
(§2) For ovalbumin (OVA) challenge, mice were sensitized intraperitoneally (i.p.) with 50 μg of OVA with 2% alhydrogel adjuvant (InvivoGen). Mice were challenged three times with 50 μg of OVA on day 7 post-sensitization, either daily or every other day. Mice were sacrificed the day after the last OVA challenge. The scheme of the OT-1 adoptive transfer mouse model for examining the proliferation of CD8^+ T cells in adjuvanting OVA challenge is described in FIG. 13.
Upon exposure of the trachea, the lungs were lavaged twice with 1 mL of PBS supplemented with 2% fetal calf serum (FCS). BALF was pooled and bronchoalveolar (BAL) cells were pelleted by centrifugation and fixed onto cytospin slides. The slides were stained with Diff-Quik solution (Polysciences Inc) and BAL differential cell count was performed.
(§3) Using the Th2 OVA-induced AHR mouse model, we assessed the capability of selected compounds 8, 12, 18, and 27 in suppressing Th2 inflammation.

[4] = tested on: B6 mice; experiment: Adjuvancy function in vivo (serum IFNγ and IL-4 after injection)
Procedure: FIG. 11. […] The adjuvancy capability of the selected compounds 8, 12, 18, 27, and 29 in vivo was assessed by measuring the serum level of IFNγ and IL-4 induced after injecting them into B6 mice.
Besides assessing the ability of the new compounds to suppress inflammation, we also looked into their function to act as adjuvants, i.e. their ability to promote desirable immunological trends in the development of vaccines. We measured the in vivo adjuvancy capability of selected compounds 8, 12, 18, 27, and 29 in inducing IFNγ and IL-4 in B6 mice (FIG. 11).

[5] = tested on: glycosidases of human fibroblast lysates; experiment: Stability of the glycosidic linkage to glycosidases upon incubation with human fibroblast lysates; format: in vitro ADME; details: 4 h, 37° C., compound solution 200 μM, 0.1 M citrate buffer pH 4.5
Procedure: The stability of the glyosidic linkage in compounds 2, 4, 6, 8, 10, 12, 14, 16, 18, 20, 22, 23, 25, 27 and 29, selected as representative examples, upon incubation with human fibroblast lysates for 4 h was checked. For such purpose, cells were scraped into ice-cold H2O (10^6 cells mL^−1) and lysed by sonication. Insoluble materials were removed by centrifugation at 15,000 rpm for 5 min and protein concentrations were determined with Protein Assay Rapid Kit (WAKO, Tokyo, Japan). 10 μL of the lysates in 0.1% Triton X-100 in distilled water were incubated at 37° C. with 20 μL of the compound solution (200 μM) in 0.1 M citrate buffer, pH 4.5. In control experiments, the activity of several lysosomas glycosidases was confirmed using fluorescent substrates. The substrates were 4-methylumbelliferone (4-MU)-conjugated β-D-glucopyranoside (for GCase), α-D-glucopyranoside (for α-glucosidase), α-D-galactopyranoside (for α-Galase) and β-D-galactopyranoside (for β-galactosidase). The liberated 4-methylumbelliferone was measured in the black-well plate with a Perkin Elmer Luminescence Spectrometer (excitation wavelength: 340 nm; emission: 460 nm).

[6] = tested on: Splenocytes treated with LPS; experiment: Suppression of LPS-induced inflammation (splenocytes in vitro); format: cell-based, mouse; details: splenocytes treated concurrently with compound and LPS (FIG. 1)
Procedure: FIG. 1. […] Splenocytes were treated concurrently with the compounds of the invention and LPS to assess the suppressive function of compounds on LPS-induced inflammation, with several compounds showing prominent suppressive function.
as §1
Splenocytes were treated concurrently with the compounds of the invention and LPS to assess the suppressive function of compounds on LPS-induced inflammation.

[7] = tested on: OVA-induced AHR mouse model; experiment: Suppression of OVA-induced airway hyperreactivity (AHR) in vivo; details: OVA-induced AHR mouse model (FIG. 7)
Procedure: FIG. 7. […] The capability of selected compounds 8, 12, 18, and 27 in suppressing Th2 inflammation in vivo was assessed using the OAV-induced AHR mouse model.
as §2
Mice were anesthetized with 100 mg per kg body weight pentobarbital (Sigma-Aldrich), tracheotomised and mechanically ventilated via the FinePointe RC system (Buxco Research Systems, Wilmington, NC). Lung function was assessed by measuring lung resistance and dynamic compliance in response to increasing doses of aerosolized methacholine (1.25-40 mg/mL, Sigma-Aldrich).
as §3

[8] = tested on: Splenocytes treated with αGalCer; experiment: Suppression of αGalCer-induced inflammation (splenocytes in vitro); format: cell-based, mouse; details: splenocytes treated concurrently with compound and αGalCer (FIG. 5)
Procedure: FIG. 5. […] Splenocytes were treated concurrently with the compounds of the invention and αGalCer to assess the suppressive function of compounds on αGalCer-induced inflammation, with several compounds showing prominent suppressive function.
as §1
Splenocytes were treated concurrently with the compounds of the invention and αGalCer to assess their ability to suppress αGalCer-induced inflammation.

[9] = 2 hours after injection (FIG. 11)
[10] = 18 hours after injection (FIG. 11)

SMILES | Th1/Th2 bias [2] | IFNγ secretion [2] | IL-4 secretion [2] | IL-4 protein level in lungs [3] | IL-13 protein level in lungs [3] | serum level of IFNγ induced [4, 9] | serum level of IL-4 induced [4, 9] | serum level of IFNγ induced [4, 10] | serum level of IL-4 induced [4, 10] | suppressive function on LPS-induced inflammation [6] | further results
CCCCCCCCCCCCNC(=O)[C@H](CO[C@@H]1C(O)[C@@H](O)[C@@H](O)C2COC(=O)N21)NC(=O)CCCCCCCCCCC (some centres unmarked) [Compound 27] | Th1-biased | effective in promoting the productions of IFNγ | not IL-4 | only showed significant suppression on IL-13 | significant suppression | significant capability in inducing | significant capability in inducing | significant detectable level | significant detectable level |  | suppression of IL-6 [1]: significant suppression; suppression of TNFα [1]: significant suppression; IL-4 level in BALF [3]: only showed significant suppression on IL-13; IL-13 level in BALF [3]: significant suppression
CCCCCCCCCCCCCCC(O)C(O)C(COC1C(O)C(O)C(O)C2COC(=O)N21)n1cc(CCCCCCCCCCCC)nn1 (centres unmarked) [Compound 10] |  |  |  |  |  |  |  |  |  | prominent inflammation-suppressing function | hydrolysis of the glycolipid mimetic (free polysubstituted 2-oxa-3-oxoindolizidine detected by gas chromatography) [5]: No traces of the free polysubstituted 2-oxa-3-oxoindolizidine
CCCCCCCCCCCCCC(=O)N[C@@H](CS[C@@H]1C(O)[C@@H](O)[C@H](O)C2COC(=O)N21)C(=O)NCCCCCCCCCCCC (some centres unmarked) [Compound 22] | Th1-biased | effective in promoting the productions of IFNγ | not IL-4 |  |  |  |  |  |  |  | 
CCCCCCCCCCCCNC(=O)[C@H](CS[C@@H]1C(O)[C@@H](OCc2ccccc2)[C@H](O)C2COC(=O)N21)NC(=O)CCCCCCCCCCC (some centres unmarked) [Compound 20] |  |  |  |  |  |  |  |  |  | prominent inflammation-suppressing function | 
CCCCCCCCCCCCCC[C@@H](O)[C@@H](O)[C@H](CO[C@@H]1C(O)[C@@H](O)[C@@H](O)C2COC(=O)N21)n1cc(CCCCCCCC)nn1 (some centres unmarked) [Compound 8] | Th2-biased | not IFNγ | proficient at inducing IL-4 secretion | only showed significant suppression on IL-13 | significant suppression | significant capability in inducing | significant capability in inducing | significant detectable level | significant detectable level | prominent inflammation-suppressing function | suppression of airway hyperreactivity (AHR) [7]: can suppress AHR onset
CCCCCCCCCCCCNC(=O)[C@H](CO[C@@H]1C(O)[C@@H](O)[C@H](O)C2COC(=O)N21)NC(=S)NCCCCCCCC (some centres unmarked) [Compound 14] |  |  |  |  |  |  |  |  |  | prominent inflammation-suppressing function | 
CCCCCCCCCCCCCCCCCCCCCCCCCC(=O)N[C@@H](CO[C@@H]1C(O)[C@@H](O)[C@@H](O)C2COC(=O)N21)[C@H](O)[C@H](O)CCCCCCCCCCCCCC (some centres unmarked) [Compound 6] |  |  |  |  |  |  |  |  |  |  | suppressive function on αGalCer-induced inflammation [8]: prominent inflammation-suppressing function
CCCCCCCCCCCCNC(=O)[C@H](CS[C@@H]1C(O)[C@@H](O)[C@H](O)C2COC(=O)N21)NC(=O)CCCCCCCCCCC (some centres unmarked) [Compound 18] | Th1-biased | effective in promoting the productions of IFNγ | not IL-4 | only showed significant suppression on IL-13 | significant suppression | significant serum IFNγ level | only showed significant serum IFNγ level | significant serum IFNγ level | only showed significant serum IFNγ level | prominent inflammation-suppressing function | suppression of airway hyperreactivity (AHR) [7]: can suppress AHR onset; IL-4 level in BALF [3]: significant suppression; IL-13 level in BALF [3]: only showed significant suppression on IL-4
CCCCCCCCCCCCCCCCCCCCCCCCCC(=O)N[C@@H](CO[C@@H]1C(O)[C@@H](O)[C@H](O)C2COC(=O)N21)[C@H](O)[C@H](O)CCCCCCCCCCCCCC (some centres unmarked) [Compound 2] |  |  |  |  |  |  |  |  |  |  | suppressive function on αGalCer-induced inflammation [8]: prominent inflammation-suppressing function
CCCCCCCCCCCCNC(=O)[C@H](CS[C@@H]1C(O)[C@@H](O)[C@@H](O)C2COC(=O)N21)NC(=O)CCCCCCCCCCC (some centres unmarked) [Compound 29] | Th1-biased | effective in promoting the productions of IFNγ | not IL-4 |  |  | significant capability in inducing | significant capability in inducing | significant detectable level | significant detectable level |  | 
